Measurements from patent publication US20070166710A1, “Methods for inhibiting adipogenesis and for treating type 2 diabetes” (priority 2003, published 2007).

Columns and labels:
Foxa-2 = test: Intracellular localization of Foxa-2 in hepatocytes after insulin injection into the portal vein; type: in vivo, mice
Experimental: Cryosections of livers ([…]) were fixed for 15 min at RT with 4% paraformaldehyde. For immunofluorescent detection of Foxa-2 or HA-Foxa-2, fixed sections were incubated with either anti-Foxa-2 antibody (1:100) or anti-HA antibody (Convance) (1:1000) overnight at 4° C. After washing, sections were treated with secondary antibody linked to Alexa Fluor 488 (Molecular Probes). For nuclear counterstaining, TOPRO-3 dye (Molecular Probes) was used. Immunofluorescent staining was visualized using laser-scanning micrsocopy.
The role of Foxa-2 in the regulation of liver gene expression by nutritional status was examined by determining the intracellular localization of Foxa-2 in fasted and fed mice by Western blotting of Foxa-2 in liver nuclear extracts and by immunohistochemistry. In fed mice, nuclear Foxa-2 levels were low, whereas after an overnight fast Foxa-2 expression in liver nuclei increased ^˜4 to 5-fold (FIG. 15a). […] Strong Foxa-2 immunostaining was detected in hepatocyte nuclei of control (PBS) mice. […] Foxa-2 protein levels were measured in liver nuclei of C57/B6 mice that were perfused with a buffer containing a range of insulin concentrations that included fasting and postprandial insulin levels (0.2 and 4.0 ng/ml, respectively). […] Foxa-2 levels were determined by immunoblotting. […]

Fxr = Fxr expression in primary adipocytes of lean mice cultured with insulin; type: cell-based; details: insulin 50 nM, 60 hours

Substance: insulin: Insulin was from Sigma; hormone used as stimulus
- nuclei from which Foxa-2 was excluded (Foxa-2; 20 ng/ml insulin into the portal vein of fasted mice, after 5 minutes): ~80%
- localization of Foxa-2 in hepatocytes (Foxa-2; 15 minutes after insulin administration): located exclusively in the cytoplasm of all hepatocytes
- Fxr expression (Fxr): induced
